The molecules below were run on ATF4 luciferase reporter in HEK293T cells (assay: ATF4-Luc assay (in vitro model of VWMD)). Details: Homo sapiens, HEK-293T, 7 h, HEK293T cells carrying the ATF4 luciferase reporter, 1 μg/mL tunicamycin, One Glo luminescence.
Assay type: cell-based, human
In short: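 Tunicamycin (1 μg/mL) stress with co-added compound for 7 hours in HEK293T cells stably carrying an ATF4 5′-UTR–luciferase reporter. EC50 values come from the luminescent signal (One Glo).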

O=C(NC12CC(n3cnc(C(=O)N4CC(OC(F)(F)F)C4)c3)(C1)C2)[C@H]1C[C@@H](O)c2cc(Cl)ccc2O1 [Compound 395, (2R,4R)-6-chloro-4-hydroxy-N-(3-{4-[3-(trifluoromethoxy)azetidine-1-carbonyl]-1H-imidazol-1-yl}bicyclo[1.1.1]pentan-1-yl)-3,4-dihydro-2H-1-benzopyran-2-carboxamide] and O=C(NC12CC(n3cnc(C(=O)N4CC[C@@H](OC(F)(F)F)C4)c3)(C1)C2)[C@H]1C[C@@H](O)c2cc(Cl)ccc2O1 [Compound 321, (2R,4R)-6-chloro-4-hydroxy-N-(3-{4-[(3R)-3-(trifluoromethoxy)pyrrolidine-1-carbonyl]-1H-imidazol-1-yl}bicyclo[1.1.1]pentan-1-yl)-3,4-dihydro-2H-1-benzopyran-2-carboxamide] fall in the same range of EC50: 10 to 50 nM for the first, 10 to 50 nM for the second.

O=C(NC12CC(n3cc(OCCCOC(F)(F)F)cn3)(C1)C2)[C@H]1C[C@H](O)c2cc(C(F)(F)F)c(F)cc2O1 [Compound 636, (2R,4S)-7-fluoro-4-hydroxy-N-(3-{4-[3-(trifluoromethoxy)propoxy]-1H-pyrazol-1-yl}bicyclo[1.1.1]pentan-1-yl)-6-(trifluoromethyl)-3,4-dihydro-2H-1-benzopyran-2-carboxamide] and O=C(NC12CC(n3cc(OCCOC(F)(F)F)cn3)(C1)C2)[C@H]1C[C@H](O)c2cc(C(F)(F)F)c(F)cc2O1 [Compound 633, (2R,43)-7-fluoro-4-hydroxy-N-(3-{4-[2-(trifluoromethoxy)ethoxy]-1H-pyrazol-1-yl}bicyclo[1.1.1]pentan-1-yl)-6-(trifluoromethyl)-3,4-dihydro-2H-1-benzopyran-2-carboxamide] cannot be ordered by EC50: less than 10 nM for the first, less than 10 nM for the second.

O=C(NC12CC(n3cc(N4CC[C@@H](OC(F)(F)F)C4)cn3)(C1)C2)[C@H]1C[C@@H](O)c2cc(Cl)c(F)cc2O1 [Compound 389, (2R,4R)-6-chloro-7-fluoro-4-hydroxy-N-(3-{4-[(3R)-3-(trifluoromethoxy)pyrrolidin-1-yl]-1H-pyrazol-1-yl}bicyclo[1.1.1]pentan-1-yl)-3,4-dihydro-2H-1-benzopyran-2-carboxamide] and O=C(NC12CC(n3cc(C(=O)N4CC[C@H](OC(F)(F)F)C4)cn3)(C1)C2)[C@H]1C[C@@H](O)c2cc(Cl)ccc2O1 [Compound 371, (2R,4R)-6-chloro-4-hydroxy-N-(3-{4-[(3S)-3-(trifluoromethoxy)pyrrolidine-1-carbonyl]-1H-pyrazol-1-yl}bicyclo[1.1.1]pentan-1-yl)-3,4-dihydro-2H-1-benzopyran-2-carboxamide] cannot be ordered by EC50: less than 10 nM for the first, less than 10 nM for the second.

First: O=C(NC12CC(c3ccnc(OCCOC(F)(F)F)n3)(C1)C2)[C@H]1C[C@@H](O)c2cc(C(F)(F)F)c(F)cc2O1 [Compound 593, (2R,4R)-7-fluoro-4-hydroxy-N-(3-{2-[2-(trifluoromethoxy)ethoxy]pyrimidin-4-yl}bicyclo[1.1.1]pentan-1-yl)-6-(trifluoromethyl)-3,4-dihydro-2H-1-benzopyran-2-carboxamide]
Second: O=C(NC12CC(n3cc(OCCCC(F)(F)F)cn3)(C1)C2)[C@H]1C[C@@H](O)c2cc(C(F)(F)F)c(F)cc2O1 [Compound 641, (2R,4R)-7-fluoro-4-hydroxy-N-{3-[4-(4,4,4-trifluorobutoxy)-1H-pyrazol-1-yl]bicyclo[1.1.1]pentan-1-yl}-6-(trifluoromethyl)-3,4-dihydro-2H-1-benzopyran-2-carboxamide]
The EC50 of the first is higher: 10 to 50 nM for the first, less than 10 nM for the second. The second is the more potent here.

O=C(CO[C@H]1C[C@@H](OC(F)(F)F)C1)NC12CC(NC(=O)[C@H]3C[C@@H](O)c4cc(C(F)(F)F)c(F)cc4O3)(C1)C2 [Compound 644, (2R,4R)-7-fluoro-4-hydroxy-N-[3-(2-{[(1s,3S)-3-(trifluoromethoxy)cyclobutyl]oxy}acetamido)bicyclo[1.1.1]pentan-1-yl]-6-(trifluoromethyl)-3,4-dihydro-2H-1-benzopyran-2-carboxamide] and O=C(CO[C@H]1C[C@@H](OC(F)(F)F)C1)NC12CCC(NC(=O)[C@H]3C[C@@H](O)c4cc(Cl)c(F)cc4O3)(CC1)[C@@H](O)C2 [Compound 490, (2R,4R)-6-chloro-7-fluoro-4-hydroxy-N-[(2S)-2-hydroxy-4-(2-{[(1s,3R)-3-(trifluoromethoxy)cyclobutyl]oxy}acetamido)bicyclo[2.2.2]octan-1-yl]-3,4-dihydro-2H-1-benzopyran-2-carboxamide] cannot be ordered by EC50: less than 10 nM for the first, less than 10 nM for the second.

O=C(NC12CC(n3cc4cc(COCC(F)(F)F)ccc4n3)(C1)C2)[C@H]1C[C@@H](O)c2cc(Cl)c(F)cc2O1 [Compound 651, (2R,4R)-6-chloro-7-fluoro-4-hydroxy-N-(3-{5-[(2,2,2-trifluoroethoxy)methyl]-2H-indazol-2-yl}bicyclo[1.1.1]pentan-1-yl)-3,4-dihydro-2H-1-benzopyran-2-carboxamide] and COc1ccc2nn(C34CC(NC(=O)[C@H]5C[C@@H](O)c6cc(Cl)c(F)cc6O5)(C3)C4)cc2c1 [Compound 505, (2R,4R)-6-chloro-7-fluoro-4-hydroxy-N-[3-(5-methoxy-2H-indazol-2-yl)bicyclo[1.1.1]pentan-1-yl]-3,4-dihydro-2H-1-benzopyran-2-carboxamide] cannot be ordered by EC50: less than 10 nM for the first, less than 10 nM for the second.

Compared with O=C(N[C@H]1CC[C@H](n2cc(OCCOC(F)(F)F)cn2)CC1)[C@H]1C[C@H](O)c2cc(C(F)(F)F)c(F)cc2O1 [Compound 486, (2R,4R)-7-fluoro-4-hydroxy-N-[(1r,4R)-4-{4-[2-(trifluoromethoxy)ethoxy]-1H-pyrazol-1-yl}cyclohexyl]-6-(trifluoromethyl)-3,4-dihydro-2H-1-benzopyran-2-carboxamide], O=C(N[C@H]1CC[C@H](n2cc(OCCOC(F)(F)F)cn2)CC1)[C@H]1C[C@H](O)c2cc(Cl)ccc2O1 [Compound 447, (2R,4S)-6-chloro-4-hydroxy-N-[(1r,4R)-4-{4-[2-(trifluoromethoxy)ethoxy]-1H-pyrazol-1-yl}cyclohexyl]-3,4-dihydro-2H-1-benzopyran-2-carboxamide] is higher in EC50: less than 10 nM for the first, 50 to 250 nM for the second. The first is the more potent here.

Compared with O=C(COc1ccc(Cl)c(F)c1)NC12CC(c3ccc(OCCOC(F)(F)F)nc3)(C1)C2 [Compound 456, 2-(4-chloro-3-fluorophenoxy)-N-(3-{6-[2-(trifluoromethoxy)ethoxy]pyridin-3-yl}bicyclo[1.1.1]pentan-1-yl)acetamide], O=C(NC12CC(c3ccnc(OCCCOC(F)(F)F)c3)(C1)C2)[C@H]1C[C@@H](O)c2cc(Cl)ccc2O1 [Compound 428, (2R,4R)-6-chloro-4-hydroxy-N-(3-{2-[3-(trifluoromethoxy)propoxy]pyridin-4-yl}bicyclo[1.1.1]pentan-1-yl)-3,4-dihydro-2H-1-benzopyran-2-carboxamide] is lower in EC50: 50 to 250 nM for the first, less than 10 nM for the second.

Compared with O=C(N[C@H]1C[C@H]2O[C@@H]1C[C@@H]2c1nnc([C@H]2C[C@@H](OC(F)(F)F)C2)o1)[C@@H]1C[C@H](O)c2cc(Cl)ccc2O1 (mixture of isomers) [Compound 186, (2S,4S)-6-chloro-4-hydroxy-N-[(1RS,2SR,4RS,5SR)-5-{5-[cis-3-(trifluoromethoxy)cyclobutyl]-1,3,4-oxadiazol-2-yl}-7-oxabicyclo[2.2.1]heptan-2-yl]-3,4-dihydro-2H-1-benzopyran-2-carboxamide], O=C1CC(C(=O)NC23CC(c4nnc([C@H]5C[C@@H](OC(F)(F)F)C5)o4)(C2)C3)Oc2ccc(Cl)cc21 (stereo partly drawn) [Compound 151, 6-chloro-4-oxo-N-(3-{5-[(1s,3s)-3-(trifluoromethoxy)cyclobutyl]-1,3,4-oxadiazol-2-yl}bicyclo[1.1.1]pentan-1-yl)-3,4-dihydro-2H-1-benzopyran-2-carboxamide] is higher in EC50: 10 to 50 nM for the first, 50 to 250 nM for the second. The first is the more potent here.

O=C(NC12CC(n3cc(-c4ccc(OC(F)(F)F)c(F)c4)cn3)(C1)C2)[C@H]1C[C@@H](O)c2cc(Cl)ccc2O1 [Compound 312, (2R,4R)-6-chloro-N-(3-{4-[3-fluoro-4-(trifluoromethoxy)phenyl]-1H-pyrazol-1-yl}bicyclo[1.1.1]pentan-1-yl)-4-hydroxy-3,4-dihydro-2H-1-benzopyran-2-carboxamide] and O=C(NC12CC(n3cc(-c4ccc(OC(F)(F)F)cn4)cn3)(C1)C2)[C@H]1C[C@H](O)c2cc(Cl)ccc2O1 [Compound 545, (2R,4S)-6-chloro-4-hydroxy-N-(3-{4-[5-(trifluoromethoxy)pyridin-2-yl]-1H-pyrazol-1-yl}bicyclo[1.1.1]pentan-1-yl)-3,4-dihydro-2H-1-benzopyran-2-carboxamide] cannot be ordered by EC50: less than 10 nM for the first, less than 10 nM for the second.

O=C(NC12CC(n3cc(-c4ccc(OC(F)F)nc4)cn3)(C1)C2)[C@H]1C[C@@H](O)c2cc(Cl)ccc2O1 [Compound 327, (2R,4R)-6-chloro-N-(3-{4-[6-(difluoromethoxy)pyridin-3-yl]-1H-pyrazol-1-yl}bicyclo[1.1.1]pentan-1-yl)-4-hydroxy-3,4-dihydro-2H-1-benzopyran-2-carboxamide] and O=C(NC12CC(n3cnc(-c4ccc(OC(F)(F)F)c(F)c4F)c3)(C1)C2)[C@H]1C[C@@H](O)c2cc(Cl)ccc2O1 [Compound 391, (2R,4R)-6-chloro-N-(3-{4-[2,3-difluoro-4-(trifluoromethoxy)phenyl]-1H-imidazol-1-yl}bicyclo[1.1.1]pentan-1-yl)-4-hydroxy-3,4-dihydro-2H-1-benzopyran-2-carboxamide] cannot be ordered by EC50: less than 10 nM for the first, less than 10 nM for the second.

O=C(NC12CC(n3cc(CCCC(F)(F)F)cn3)(C1)C2)[C@H]1C[C@@H](O)c2cc(Cl)c(F)cc2O1 [Compound 520, (2R,4R)-6-chloro-7-fluoro-4-hydroxy-N-{3-[4-(4,4,4-trifluorobutyl)-1H-pyrazol-1-yl]bicyclo[1.1.1]pentan-1-yl}-3,4-dihydro-2H-1-benzopyran-2-carboxamide] and O=C(NC12CC(n3cc4c(n3)CN(C(=O)COC(F)(F)F)C4)(C1)C2)[C@H]1C[C@@H](O)c2cc(Cl)c(F)cc2O1 [Compound 511, (2R,4R)-6-chloro-7-fluoro-4-hydroxy-N-(3-{5-[(trifluoromethoxy)acetyl]-5,6-dihydropyrrolo[3,4-c]pyrazol-2(4H)-yl}bicyclo[1.1.1]pentan-1-yl)-3,4-dihydro-2H-1-benzopyran-2-carboxamide] fall in the same range of EC50: 10 to 50 nM for the first, 10 to 50 nM for the second.
